# Measurements from patent US6756208B2, “Plasma glucosylceramide deficiency as risk factor for thrombosis and modulator of anticoagulant protein C” (priority 2001, dated 2004).
# “Also recorded” adds a separate entry of the source.
# Tests used:
# [1] = tested on: APC:protein S; assay: Modified dilute prothrombin time clotting assay with glycolipid vesicles added to normal plasma; assay type: biochemical, human; settings: for effect on APC:protein S anticoagulant response: 0-100 mg/ml; for anticoagulant response of plasma to APC:protein S (clotting time prolongation, modified PT assay): glycolipid vesicles added to normal plasma, APC plus protein S present; for effect on baseline clotting times: without APC or protein S added
# Experimental: Anticoagulant response to APC:protein S. Modified dilute prothrombin time based assays were performed as previously described. Briefly, 7.5 μl of test plasma was mixed with fibrinogen (0.6 mg/ml final concentration) and APC (8.7 nM final) plus protein S (28 nM final) or buffer, and incubated 3 min at 37° C. (100 μl total volume). Clotting times were measured after addition of 50 μl of recombinant human tissue factor (Innovin from DADE, Miami, Fla.) diluted 1:40 in Tris (tris[hydroxymethyl] aminomethane)-buffered saline containing 0.5% bovine serum albumin (TBSA) and 30 mM CaCl2. Baseline clotting times without addition of APC:protein S were also determined. For studies of the effects of glycolipid vesicles or glucocerebrosidase treatment on clotting assays, a 1:64 dilution of Innovin was used in the presence or absence of APC and protein S. In the study of the effect of glucocerebrosidase, 13 nM APC and 42 nM protein S were employed.
# Preparation of glycolipid vesicles. To prepare extruded glycolipid vesicles, dried glycolipids GlcCer, Gb3Cer, galactosylceramide (GalCer) (Sigma), and LacCer were suspended at 100 μg/ml in TBS at room temperature, vortexed 5 min, and passed through a 0.2 μm filter (Osmonics, Livermore, Calif.). Concentrations of glycolipids recovered after filtration were determined by HPLC analysis as described above.
# [2] = molecular target: T1, factor Va (Homo sapiens, UniProt P12259); assay: Factor Va inactivation by APC/protein S with 1, 5 or 10% glycolipid in PC/PS vesicles (Example 7); assay type: biochemical; settings: for effect on factor Va inactivation by APC:protein S, glycolipid incorporated into PC/PS vesicles (overall statement): glycolipid content not specified; for enhancement of factor Va inactivation by APC/protein S: APC 0.16 nM, 5 min
# T1 construct: APC cleaves the heavy chain of factor Va at Arg506, and then Arg306, and perhaps Arg679
# T1 sequence (P12259 29-737 limits assumed): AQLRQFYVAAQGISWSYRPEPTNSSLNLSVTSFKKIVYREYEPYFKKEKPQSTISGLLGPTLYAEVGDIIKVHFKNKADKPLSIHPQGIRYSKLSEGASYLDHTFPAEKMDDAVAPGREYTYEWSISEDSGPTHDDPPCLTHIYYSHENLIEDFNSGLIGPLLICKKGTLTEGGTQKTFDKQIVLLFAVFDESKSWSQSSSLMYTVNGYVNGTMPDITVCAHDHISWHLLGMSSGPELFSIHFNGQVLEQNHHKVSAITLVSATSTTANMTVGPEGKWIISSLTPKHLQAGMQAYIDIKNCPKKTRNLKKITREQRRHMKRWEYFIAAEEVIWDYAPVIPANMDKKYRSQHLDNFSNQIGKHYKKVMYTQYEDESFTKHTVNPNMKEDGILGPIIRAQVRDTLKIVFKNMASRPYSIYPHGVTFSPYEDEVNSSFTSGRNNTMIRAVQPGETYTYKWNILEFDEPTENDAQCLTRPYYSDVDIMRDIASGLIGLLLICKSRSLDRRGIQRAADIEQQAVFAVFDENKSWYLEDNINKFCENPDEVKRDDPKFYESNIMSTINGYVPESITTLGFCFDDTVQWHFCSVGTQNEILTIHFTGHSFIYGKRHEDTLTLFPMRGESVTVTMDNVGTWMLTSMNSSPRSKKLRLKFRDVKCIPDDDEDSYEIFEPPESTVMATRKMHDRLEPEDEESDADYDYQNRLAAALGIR
# T1 sequence (P12259 1574-2224 limits assumed): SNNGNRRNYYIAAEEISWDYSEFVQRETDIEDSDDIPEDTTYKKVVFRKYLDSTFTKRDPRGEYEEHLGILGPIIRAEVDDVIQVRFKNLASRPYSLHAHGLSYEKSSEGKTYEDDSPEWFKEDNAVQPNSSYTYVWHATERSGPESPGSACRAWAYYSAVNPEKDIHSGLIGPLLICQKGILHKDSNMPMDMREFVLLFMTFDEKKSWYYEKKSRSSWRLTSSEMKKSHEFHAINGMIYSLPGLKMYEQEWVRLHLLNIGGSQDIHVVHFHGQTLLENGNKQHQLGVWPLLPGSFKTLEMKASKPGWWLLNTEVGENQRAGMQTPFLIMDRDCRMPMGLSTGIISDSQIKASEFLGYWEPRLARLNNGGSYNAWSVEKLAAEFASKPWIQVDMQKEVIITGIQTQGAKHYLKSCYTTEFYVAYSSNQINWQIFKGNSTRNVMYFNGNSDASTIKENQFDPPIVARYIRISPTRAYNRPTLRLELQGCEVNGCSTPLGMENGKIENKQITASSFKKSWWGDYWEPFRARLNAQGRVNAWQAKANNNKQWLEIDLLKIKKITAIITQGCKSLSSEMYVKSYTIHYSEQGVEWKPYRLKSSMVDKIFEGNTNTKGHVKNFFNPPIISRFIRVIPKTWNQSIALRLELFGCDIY
# Experimental: FIGS. 6A-6E. Anticoagulant response of plasma to APC/protein S is enhanced by addition of glycolipids. Purified factor Va (1.5 nM) was incubated with APC (0.16 nM final)/protein S (18 nM final) and varying lipid vesicles to allow factor Va inactivation for five minutes and then the residual factor Va activity was determined using prothrombin time clotting assays.
# Purified factor Va (1.5 nM) was incubated with APC (0.16 nM final)/protein S (18 nM final) and varying lipids vesicles to allow factor Va inactivation for 5 min., and then the residual factor Va activity was determined using prothrombin time clotting assays.
# [3] = tested on: APC:protein S; assay: Factor Xa-1-stage clotting assays without addition of exogenous lipids; assay type: biochemical; settings: presence versus absence of APC:protein S; data not shown
# [4] = molecular target: T1, factor Va; assay: Factor Va inactivation assay with purified proteins (GlcCer vesicles and multicomponent PC/PS/GlcCer vesicles); assay type: biochemical
# Experimental: Large unilamellar multicomponent vesicles were prepared generally as described. (27) Appropriate aliquots of PC, PS and GlcCer were mixed and dried under nitrogen. The lipid mixture was hydrated at a concentration of 6.25 mM lipid in TBS and freeze-thawed 10 times using liquid nitrogen, and the solution of vesicles was passed 15 times through a 0.2 μm filter (Millipore). Concentrations of glycolipid recovered after filtration were determined by HPLC analysis as described above. PC concentration was determined by an enzymatic […] method (Phospholipids B kit, Wako Chemical USA, Inc., Richmond, Va.).
# Factor Va inactivation assay. To study the time course of factor Va inactivation by APC:protein S, mixtures containing GlcCer vesicles or control PC vesicles (21.5 μM) or buffer, APC (6 nM final), protein S (18 nM final), and factor Va (1.5 nM) with 5 mM CaCl2 were incubated at 37° C. Aliquots were withdrawn at various times and the reaction was quenched by adding ethylenediamine tetraacetic acid (EDTA) prior to determination of residual factor Va activity. […] The residual factor Va activity was quantitated using prothrombin time clotting assays and standard log-log calibration curves of clotting time versus factor Va concentration generated using purified factor Va and factor V deficient plasma. […]
# [5] = 1% glycolipid in PC/PS vesicles
# [6] = 5% glycolipid in PC/PS vesicles
# [7] = 10% glycolipid in PC/PS vesicles
compound,measurement,setting,value
"OC[C@H]1OC(O)[C@H](O)[C@@H](O)[C@@H]1O (stereo partly drawn) [D-Glc, reference compound]",effect on APC:protein S anticoagulant response,[1]; data not shown,Neither D-Glc alone nor ceramide alone (0-100 mg/ml) affected
same,"anticoagulant response of plasma to APC:protein S (clotting time prolongation, modified PT assay)",[1],neither D-Glc alone nor ceramide alone was anticoagulantly active
ceramide [reference compound],effect on APC:protein S anticoagulant response,[1]; data not shown,Neither D-Glc alone nor ceramide alone (0-100 mg/ml) affected
same,"anticoagulant response of plasma to APC:protein S (clotting time prolongation, modified PT assay)",[1],neither D-Glc alone nor ceramide alone was anticoagulantly active
galactosylceramide [GalCer],"anticoagulant response of plasma to APC:protein S (clotting time prolongation, modified PT assay)",[1],did not enhance APC:protein S action; also recorded: inactive
same,effect on baseline clotting times,[1],no effect on baseline clotting times
same,enhancement of factor Va inactivation,"[2]; above 10 μg/ml of total lipid, 5 and 10% glycolipid in PC/PS vesicles",enhanced factor Va inactivation by APC/protein C like GlcCer in PC/PS vesicle
same,effect on factor Va inactivation compared with GlcCer in PC/PS,[2]; below 10 μg/ml,not as well as GlcCer in PC/PS
same,"effect on factor Va inactivation by APC:protein S, glycolipid incorporated into PC/PS vesicles (overall statement)",[2],significantly directly enhance inactivation
globotetraosylceramide [Gb4Cer],"effect on factor Va inactivation by APC:protein S, glycolipid incorporated into PC/PS vesicles (overall statement)",[2],much weaker effect
globotriaosylceramide [Gb3Cer],"anticoagulant response of plasma to APC:protein S (clotting time prolongation, modified PT assay)",[1],activity very similar to GlcCer; also recorded: approximately equally active; also recorded: enhanced
same,enhancement of factor Va inactivation by APC/protein S,[2]; [5],enhanced inactivation of factor Va significantly even at 1 μg/ml
same,enhancement of factor Va inactivation by APC/protein S,[2]; [6],enhanced much more
same,"effect on factor Va inactivation by APC:protein S, glycolipid incorporated into PC/PS vesicles (overall statement)",[2],significantly directly enhance inactivation
glucosylceramide [GlcCer],"clotting time prolongation, modified PT assay",[1]; APC alone added without protein S,much less clotting time prolongation
same,"anticoagulant response of plasma to APC:protein S (clotting time prolongation, modified PT assay)",[1],dose-dependent marked prolongation; also recorded: dose-dependently enhances the anticoagulant response; also recorded: dose-dependently enhanced this anticoagulant response; also recorded: very active
same,"effect on clotting times, modified PT assay","[1]; protein S alone added in the absence of APC, data not shown",no effect on clotting times
same,effect on baseline clotting times,[1],without affecting baseline clotting time
same,clotting time prolongation in factor Xa-1-stage assays,[3],clotting time prolongation in the presence but not absence of APC:protein S
same,inactivation of purified factor Va by APC:protein S (overall statement),[4],directly enhanced inactivation of purified factor Va; also recorded: enhances factor Va inactivation
same,enhancement of factor Va inactivation by APC/protein S,[2]; [5],little enhancement effect
same,factor Va inactivation reached,[2]; [6],up to 60%
same,enhancement of factor Va inactivation by APC/protein S,[2]; [6],enhanced inactivation of factor Va much more
same,concentration from which the enhancement effect was observed,[2]; 5 and 10% GlcCer in PC/PS vesicle,≥ 1 µg/mL
same,factor Va inactivation reached,[2]; [7],up to 60%
same,enhancement of factor Va inactivation by APC/protein S,[2]; [7],enhanced inactivation of factor Va much more
same,"effect on factor Va inactivation by APC:protein S, glycolipid incorporated into PC/PS vesicles (overall statement)",[2],significantly directly enhance inactivation
lactosylceramide [LacCer],"anticoagulant response of plasma to APC:protein S (clotting time prolongation, modified PT assay)",[1],much lower activity; also recorded: does not possess this anticoagulant property
same,enhancement of factor Va inactivation by APC/protein S,[2]; [5],little like GlcCer
same,factor Va inactivation reached,[2]; [7],up to 90%
same,enhancement of factor Va inactivation by APC/protein S,[2]; [7],dramatically enhanced factor Va inactivation
same,"effect on factor Va inactivation by APC:protein S, glycolipid incorporated into PC/PS vesicles (overall statement)",[2],significantly directly enhance inactivation
